In US9657071B2, “IgE peptide vaccine” (NIPPON ZENYAKU KOGYO CO., LTD., priority 2012, dated 2017):

Key:
[1] = test system: peptide-specific IgG; test: Peptide-specific IgG in serum of dogs given IgE peptide vaccine (ELISA); format: in vivo; conditions: dog
Method: The peptide used was MOUSE CH3-4-17-11 (mouse CH3 region amino acid sequence) (SEQ ID NO: 27). 2 mL (500 μg) of a solution of the peptide (concentration: 250 μg/mL) and 2 mL of a complete adjuvant (DIFCO ADJUVANT COMPLETE FREUND, Becton, Dickinson and Company Japan) were dispensed to microtubes. Liquids (4 mL per animal) emulsified by shaking for 15 minutes in a high-speed shaker were used as IgE peptide vaccines.
The animals used were 1 male and 7 females of 5- to 7-month-old beagles and were divided into an administration group (n=4; 08-33, 08-42, 08-43, and 08-44) and a non-administration group (n=4; 08-45, 08-46, 08-47, and 08-48).
The peptide was administered at days 0 (test start date), 14, and 28 in the first course and further at days 106 and 117 in the second course. The test substance was subcutaneously administered to the necks of the 4 animals in the administration group. The non-administration group was untreated.
At days 0, 14, 28, 42, 56, 70, 77, 84, 98, 106, 117, 131, 145, and 152 (4 time points (0, 14, 28, and 42) were excluded for the non-administration group), blood was collected from the jugular vein of each individual using a syringe. After separation of serum, the serum was used to measure peptide-specific IgG concentrations and IgE-specific IgG concentrations in the serum.
Each antigenic protein (MOUSE CH3-4-17-11 for peptide-specific IgG assay, and human IgE for IgE-specific IgG assay) was prepared at 1 μg/mL in an immobilization buffer (0.05 M carbonate buffer, pH 9.6), then added at a concentration of 100 μL/well to an ELISA plate, and left overnight at 4° C. The immobilization plate was washed once with PBS-T (0.05%). A blocking solution (4× Block Ace, Snow Brand Milk Products Co., Ltd.; UK-B80) was added thereto at a concentration of 200 μL/well. The plate was blocked by incubation at 37° C. for 1.5 hours. The serum was diluted 5000-fold with a diluent (PBS-T:Block Ace=9:1) and used. […] Then, the measurement was performed using a plate reader (Bio-Rad Laboratories, Inc.; model 680) (dual: measurement: 450 nm, control: 570 nm).

[2] = test system: Dog subjected to P-K test; test: Prausnitz-Kustner (P-K) test; format: in vivo; conditions: conclusion of P-K test
Method: The P-K test refers to a method for qualitatively evaluating antigen-specific IgE in test serum and employs additional antigen-unsensitized individuals. The test is summarized as follows:
1) Antigen-unsensitized animals are prepared as animals subjected to the P-K test.
2) Test serum or serum of a healthy animal (control) is intracutaneously administered to the animals subjected to the P-K test. When antigen-specific IgE is present in the test serum, the IgE binds to the surface of mast cells in the skins of the animals subjected to the P-K test within 48 hours after the administration.
3) 48 hours after the serum administration, an antigen solution is intracutaneously administered to the same sites as above. When antigen-specific IgE is present in the test serum, the antigen binds to the antigen-specific IgE bound with the surface of mast cells to form IgE cross-linking. This triggers the degranulation of the mast cells, resulting in flare confirmed in the skins.
The administration group and the non-administration group differed most largely in their serum Der f 2-specific IgE concentrations at day 77 (7 days after the second sensitization) when the effects of the test substance were thus confirmed to be maximized. […]

With “QEKKTSVSASQWYTKHHNNATTSIT (listed as Mus musculus) [MOUSE CH3-4-17-11]” as the sequence, how does the “peptide-specific IgG concentrations in serum (O.D. values), one animal (08-44)” value ([1]; s.c., day 117 or later (second course)) read?
Its value is ≥ 1.0 O.D.

What about the “peptide-specific IgG in serum, administration group versus non-administration group” value ([1]; day 77, p<0.05) of the same sequence?
Its value is “significantly higher”.

And the “level of IgG antibody against the peptide” value ([1]; summary of FIG. 6)?
Its value is “increased”.

And the “effect of vaccine-induced IgG on binding of IgE to mast cells” value [2]?
The value was “blocks the binding of the IgE to mast cells”.
